US8048896B2, “Methods for inhibiting and breaking AGE complex formation” (Cell Viable Corporation, priority 2005, dated 2011)

What was measured:
[1] = test system: AGE crosslinks in tail tendon collagen of old diabetic rats; experiment: Fluorescence of collagen treated with AGE-breakers after papain digestion; type: biochemical, rat; settings: FIG. 4; particularly at 1.0 and 10 mM concentrations
Description: (§1) The effects of these compounds on AGE crosslinks that form in vivo in tail tendon collagen of old diabetic rats were determined. Non-diabetic rats served as controls. P values were calculated using unpaired Student's t-test. The extent of AGE crosslinking of tail tendon collagen formed in vivo was assessed by acid insolubility (FIG. 2, * P<0.05 vs. non-diabetic control; ** P<0.05 vs. diabetic control) and fluorescence measurements of collagen treated with AGE-breakers after pepsin (FIG. 3; * P<0.05 vs. diabetic control) or papain digestion (FIG. 4; * P<0.05 vs. non-diabetic control; ** P<0.05 vs. diabetic control). In each of FIGS. 2-4, panel A is LR-20, panel B is LR-23, panel C is LR-99 and panel D is LR-102.

[2] = test system: AGE crosslinks in tail tendon collagen of old diabetic rats; experiment: Acid solubility of tail tendon collagen treated with AGE-breakers; type: biochemical, rat; settings: FIG. 2; particularly at 1.0 and 10 mM concentrations
Description: as §1

[3] = test system: AGE crosslinks in tail tendon collagen of old diabetic rats; experiment: Fluorescence of collagen treated with AGE-breakers after pepsin digestion; type: biochemical, rat; settings: FIG. 3; particularly at 1.0 and 10 mM concentrations
Description: as §1

[4] = test system: AGE-derived protein crosslinks; settings: in vitro and in vivo; cited from earlier work
[5] = biological target: AGE formed on glycated bovine serum albumin (Bos taurus, UniProt P02769); experiment: AGE-breaking ELISA on ribose-glycated bovine serum albumin; type: biochemical; settings: FIG. 1; various concentrations, 48 hr at 37° C.; ELISA with polyclonal anti-AGE-RNAse antibodies
Chain of AGE formed on glycated bovine serum albumin (P02769 25-607): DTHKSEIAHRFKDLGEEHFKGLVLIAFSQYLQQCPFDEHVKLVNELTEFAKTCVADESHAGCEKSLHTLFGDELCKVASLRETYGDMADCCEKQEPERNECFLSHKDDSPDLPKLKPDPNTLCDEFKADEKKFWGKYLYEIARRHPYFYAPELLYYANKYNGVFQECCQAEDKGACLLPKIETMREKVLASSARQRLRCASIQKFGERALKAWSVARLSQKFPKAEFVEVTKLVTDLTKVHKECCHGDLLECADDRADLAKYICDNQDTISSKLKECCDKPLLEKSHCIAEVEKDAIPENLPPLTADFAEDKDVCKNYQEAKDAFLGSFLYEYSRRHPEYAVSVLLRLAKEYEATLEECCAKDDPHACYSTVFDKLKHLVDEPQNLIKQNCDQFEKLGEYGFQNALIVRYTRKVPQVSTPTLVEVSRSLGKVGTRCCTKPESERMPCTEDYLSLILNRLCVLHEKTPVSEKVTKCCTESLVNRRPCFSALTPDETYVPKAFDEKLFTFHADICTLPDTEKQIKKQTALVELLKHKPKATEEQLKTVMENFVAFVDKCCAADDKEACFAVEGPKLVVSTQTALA
Description: Specifically, bovine serum albumin (10 mg/mL) was incubated with 0.5 M ribose in 0.4 M phosphate buffer, pH 7.5, containing 0.02% sodium azide for 24 hr at 37° C., followed by extensive dialysis for 24 hr at 4° C. to remove excess and reversibly bound ribose. AGE formation was then initiated by incubating 0.1 mg/mL (or 1:100 dilution in phosphate buffer) of the glycated protein at 37° C. Then the AGE formed were treated with various concentrations for the compounds for 48 hr at 37° C. Aliquots from each sample were taken and diluted with 0.1 M sodium carbonate buffer to 50 μg/mL. Then 50 μl of the diluted sample was added to wells of a 96-well polystyrene plate (1.0 μg/well) and incubated overnight at room temperature. The plates were washed thrice with PBS-0.05% Tween and blocked for 1 hr with Superblock blocking buffer. The amount of AGE in each treatment was then quantified by ELISA using polyclonal anti-AGE-RNAse antibodies. Percent AGE-breaking was calculated as: (100*(mean OD wells of control-mean OD wells with compound/mean OD wells control).

Structure (SMILES)	fluorescence associated with AGE crosslinks after papain digestion [1]	collagen solubility in weak acetic acid (acid insolubility) [2]	fluorescence associated with AGE crosslinks after pepsin digestion [3]	cleavage of AGE-derived protein crosslinks [4]	Percent AGE-breaking [5]
CC(C)(Oc1ccc(NC(=O)c2ccc(Cl)cc2)cc1)C(=O)N[C@@H](CSSC[C@H](NC(=O)C(C)(C)Oc1ccc(NC(=O)c2ccc(Cl)cc2)cc1)C(=O)O)C(=O)O [LR-20, L-bis-[4-(4-chlorobenzamidophenoxyisobutyryl)cystine]]	reduction of fluorescence	increased collagen solubility	reduction of fluorescence		
CC(C)(Oc1ccc(NC(=O)Nc2cc(Cl)cc(Cl)c2)cc1)C(=O)NC1(C(=O)O)CCCCC1 [LR-23, 4-(3,5-dichlorophenylureido)phenoxyisobutyryl-1-amidocyclohexane-1-carboxylic acid]	reduction of fluorescence	increased collagen solubility	reduction of fluorescence		
CC(C)(Oc1ccc(NC(=O)Nc2cc(Cl)cc(Cl)c2)cc1)C(=O)Nc1ccc(C(=O)O)cc1 [LR-99, 4-(3,5-dichlorophenylureidophenoxyisobutyryl)-4 amino benzoic acid]	reduction of fluorescence	increased collagen solubility	reduction of fluorescence		
CC(C)(Oc1ccc(N=Cc2ccc(C=Nc3ccc(OC(C)(C)C(=O)O)cc3)cc2)cc1)C(=O)O [LR-102, 1,4-benzene-bis-(4-methyleneaminophenoxyisobutyric acid)]	reduction of fluorescence	increased collagen solubility	reduction of fluorescence		
O=C(C[n+]1ccsc1)c1ccccc1.[Br-] [N-phenacylthiazolium bromide (PTB), N-phenacylthiazolium bromide]				selectively cleaves AGE-derived protein crosslinks in vitro and in vivo	
Cc1ncc(CO)c(CN)c1O [pyridoxamine]					concentration dependent AGE-breaking properties
